Values of other authors, collected in patent US20240165275A1, “STABLE FORMULATIONS OF INDOCYANINE GREEN” (PROVEPHARM LIFE SOLUTIONS, priority 2021, published 2024).

Tests used:
[1] = after 10 hours of storage in water and direct light
[2] = stored at 4° C. in the dark

CC1(C)C(/C=C/C=C/C=C/C=C2\N(CCCCS(=O)(=O)[O-])c3ccc4ccccc4c3C2(C)C)=[N+](CCCCS(=O)(=O)[O-])c2ccc3ccccc3c21.[Na+] [ICG, Indocyanine green]
reduction of absorbance at spectral peak [1]: 10%
stability on storage [2]: stable for three days
fluorescence intensity lost ([2]; three days): 20%
